Read-outs that look alike come from different tables or passages of the source.
Legend:
giant foxtail = assay: Test A pre-/postemergence herbicide test; type: in vivo, Setaria faberii
Outline: (§1)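 Formulated compound (non-phytotoxic solvent, surfactant) sprayed pre- onto soil of seeded loam/sand pots or post- onto seedlings at 1–2 leaves; ~10 d greenhouse; 0–100 visual control rating versus untreated.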

pigweed = assay: Test A pre-/postemergence herbicide test; type: in vivo, Amaranthus retroflexus
Outline: as §1

wheat = assay: Test A pre-/postemergence herbicide test; type: in vivo, Triticum aestivum
Outline: as §1

sedge, umbrella = assay: Test B flooded paddy test; type: in vivo, Cyperus difformis; details: Flood, scale of 0 to 100 where 0 is no effect and 100 is complete control
Outline: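 First, plants reach the 2-leaf stage; next, pots are flooded to 3 cm and compound is delivered into the water; finally, after 13 to 15 greenhouse days at constant depth, injury is graded visually from 0 to 100 against controls.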

blackgrass = assay: Test C pre-/postemergence herbicide test; type: in vivo, Alopecurus myosuroides
Outline: (§2)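 Compound solutions contained surfactant in a non-phytotoxic solvent. These were sprayed onto pots of loam/sand sown with seeds, and onto young plants (2 to 18 cm, 1- to 4-leaf) in sphagnum peat–vermiculite mix. Visual injury scores (0 none, 100 complete control) were recorded after 13 to 15 days.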

ryegrass, Italian = assay: Test C pre-/postemergence herbicide test; type: in vivo, Lolium multiflorum
Outline: as §2

crabgrass, large = assay: Test C pre-/postemergence herbicide test; type: in vivo, Digitaria sanguinalis
Outline: as §2

foxtail, giant = assay: Test C pre-/postemergence herbicide test; type: in vivo, Setaria faberii
Outline: as §2

johnsongrass = assay: Test C pre-/postemergence herbicide test; type: in vivo, Sorghum halepense
Outline: as §2

nutsedge, yellow = assay: Test C pre-/postemergence herbicide test; type: in vivo, Cyperus esculentus
Outline: as §2

ragweed = assay: Test C pre-/postemergence herbicide test; type: in vivo, Ambrosia elatior
Outline: as §2

[1] = Preemergence, 125 g ai/ha, visual rating on 0 to 100 scale (0 no effect, 100 complete control)
[2] = Postemergence, 31 g ai/ha, scale 0 (no effect) to 100 (complete control)
[3] = Postemergence, 62 g ai/ha, scale 0 to 100 (0 no effect, 100 complete control)
[4] = Postemergence, 125 g ai/ha, scale 0 to 100 (0 no effect, 100 complete control)
[5] = Postemergence, 250 g ai/ha, scale 0 to 100 (0 no effect, 100 complete control)
[6] = Preemergence, 31 g ai/ha, scale 0 to 100, 0 is no effect and 100 is complete control
[7] = Preemergence, 62 g ai/ha, scale 0 to 100
[8] = Preemergence, 125 g ai/ha, scale 0 to 100 (0 no effect, 100 complete control)
[9] = Postemergence, 125 g ai/ha, visual rating on 0 to 100 scale (0 no effect, 100 complete control), approx. 10 days
[10] = Postemergence, 500 g ai/ha, 0 to 100 scale (0 no effect, 100 complete control)
[11] = Preemergence, 125 g ai/ha, 0 to 100 scale where 0 is no effect and 100 is complete control
[12] = Preemergence, 500 g ai/ha, visual rating on 0 to 100 scale (0 no effect, 100 complete control)
[13] = Postemergence, 31 g ai/ha, scale 0 to 100 (0 no effect, 100 complete control)
[14] = Postemergence, 62 g ai/ha, scale 0 (no effect) to 100 (complete control)
[15] = Preemergence, 62 g ai/ha, scale 0 to 100 (0 no effect, 100 complete control)

O=C1NCC(c2ccc(C(F)(F)F)cc2)C1C(=O)Nc1ccccc1F (stereo not drawn) [Compound 79, N-(2-fluorophenyl)-2-oxo-4-[4-(trifluoromethyl)phenyl]-3-pyrrolidinecarboxamide]
Foxtail, Giant plant response rating (giant foxtail; [1]): 90
pest or weed control at 125 g/ha (giant foxtail; Setaria faberi, post-emergence, 240 h, Postemergence, 125 g ai/ha, 0 to 100 scale, 0 no effect, 100 complete control, read-out: Plant response rating, Foxtail, Giant): 80%
pest or weed control at 500 g/ha (giant foxtail; Setaria faberi, post-emergence, 240 h, Postemergence, 500 g ai/ha, 0 to 100 scale (0 no effect, 100 complete control), read-out: Plant response rating, Foxtail, Giant): 80%
pest or weed control at 500 g/ha (giant foxtail; Setaria faberi, pre-emergence, 240 h, preemergence, 500 g ai/ha, 0 to 100 scale, read-out: Plant response rating, Foxtail, Giant): 90%
pest or weed control at 125 g/ha (pigweed; Amaranthus retroflexus, post-emergence, 240 h, Postemergence, 125 g ai/ha, 0 to 100 scale, 0 no effect, 100 complete control, read-out: Plant response rating, Pigweed): 70%
pest or weed control at 500 g/ha (pigweed; Amaranthus retroflexus, post-emergence, 240 h, Postemergence, 500 g ai/ha, 0 to 100 scale (0 no effect, 100 complete control), read-out: Plant response rating, Pigweed): 70%
pest or weed control at 500 g/ha (pigweed; Amaranthus retroflexus, pre-emergence, 240 h, preemergence, 500 g ai/ha, 0 to 100 scale, read-out: Plant response rating, Pigweed): 80%
Pigweed plant response rating (pigweed; [1]): 80
Wheat plant response rating (wheat; [1]): 0
plant injury at 125 g/ha (wheat; Triticum aestivum, post-emergence, 240 h, Postemergence, 125 g ai/ha, 0 to 100 scale, 0 no effect, 100 complete control, read-out: Plant response rating, Wheat): 30%
plant injury at 500 g/ha (wheat; Triticum aestivum, post-emergence, 240 h, Postemergence, 500 g ai/ha, 0 to 100 scale (0 no effect, 100 complete control), read-out: Plant response rating, Wheat): 50%
plant injury at 500 g/ha (wheat; Triticum aestivum, pre-emergence, 240 h, preemergence, 500 g ai/ha, 0 to 100 scale, read-out: Plant response rating, Wheat): 20%
Plant response rating, Sedge, Umbrella (sedge, umbrella; 250 g ai/ha): 0
Plant response rating, Blackgrass (blackgrass; [2]): 0
Plant response rating, Blackgrass (blackgrass; [3]): 0
Plant response rating, Blackgrass (blackgrass; [4]): 0
Plant response rating, Blackgrass (blackgrass; [5]): 5
Blackgrass plant response rating (blackgrass; [6]): 0
Plant response rating, Blackgrass (blackgrass; [7]): 65
Plant response rating, Blackgrass (blackgrass; [8]): 85
Plant response rating (scale of 0 to 100), Blackgrass (blackgrass; Preemergence, 250 g ai/ha): 85
Plant response rating, Ryegrass, Italian (ryegrass, Italian; [2]): 0
Plant response rating, Ryegrass, Italian (ryegrass, Italian; [3]): 0
Plant response rating, Ryegrass, Italian (ryegrass, Italian; [4]): 0
Plant response rating, Ryegrass, Italian (ryegrass, Italian; [5]): 0
Ryegrass, Italian plant response rating (ryegrass, Italian; [6]): 0
Plant response rating, Ryegrass, Italian (ryegrass, Italian; [7]): 5
Plant response rating, Ryegrass, Italian (ryegrass, Italian; [8]): 30
Plant response rating (scale of 0 to 100), Ryegrass, Italian (ryegrass, Italian; Preemergence, 250 g ai/ha): 30
Plant response rating, Crabgrass, Large (crabgrass, large; [2]): 5
Plant response rating, Crabgrass, Large (crabgrass, large; [3]): 5
Plant response rating, Crabgrass, Large (crabgrass, large; [4]): 65
Plant response rating, Crabgrass, Large (crabgrass, large; [5]): 75
Crabgrass, Large plant response rating (crabgrass, large; [6]): 95
Plant response rating, Crabgrass, Large (crabgrass, large; [7]): 98
Plant response rating, Crabgrass, Large (crabgrass, large; [8]): 100
Plant response rating (scale of 0 to 100), Crabgrass, Large (crabgrass, large; Preemergence, 250 g ai/ha): 100
Plant response rating, Foxtail, Giant (foxtail, giant; [2]): 15
Plant response rating, Foxtail, Giant (foxtail, giant; [3]): 15
Plant response rating, Foxtail, Giant (foxtail, giant; [4]): 15
Plant response rating, Foxtail, Giant (foxtail, giant; [5]): 15
Foxtail, Giant plant response rating (foxtail, giant; [6]): 80
Plant response rating, Foxtail, Giant (foxtail, giant; [7]): 90
Plant response rating, Foxtail, Giant (foxtail, giant; [8]): 95
Plant response rating (scale of 0 to 100), Foxtail, Giant (foxtail, giant; Preemergence, 250 g ai/ha): 98
Plant response rating, Johnsongrass (johnsongrass; [2]): 0
Plant response rating, Johnsongrass (johnsongrass; [3]): 0
Plant response rating, Johnsongrass (johnsongrass; [4]): 0
Plant response rating, Johnsongrass (johnsongrass; [5]): 5
Johnsongrass plant response rating (johnsongrass; [6]): 0
Plant response rating, Johnsongrass (johnsongrass; [7]): 0
Plant response rating, Johnsongrass (johnsongrass; [8]): 10
Plant response rating (scale of 0 to 100), Johnsongrass (johnsongrass; Preemergence, 250 g ai/ha): 10
Plant response rating, Nutsedge, Yellow (nutsedge, yellow; [2]): 0
Plant response rating, Nutsedge, Yellow (nutsedge, yellow; [3]): 0
Plant response rating, Nutsedge, Yellow (nutsedge, yellow; [4]): 0
Plant response rating, Nutsedge, Yellow (nutsedge, yellow; [5]): 0
Nutsedge, Yellow plant response rating (nutsedge, yellow; [6]): 0
Plant response rating, Nutsedge, Yellow (nutsedge, yellow; [7]): 0
Plant response rating, Nutsedge, Yellow (nutsedge, yellow; [8]): 0
Plant response rating (scale of 0 to 100), Nutsedge, Yellow (nutsedge, yellow; Preemergence, 250 g ai/ha): 0
Plant response rating, Ragweed (ragweed; [2]): 20
Plant response rating, Ragweed (ragweed; [3]): 20
Plant response rating, Ragweed (ragweed; [4]): 20
Plant response rating, Ragweed (ragweed; [5]): 45

CN1CC(c2ccc(C(F)(F)F)cc2)C(C(=O)Nc2cccc(F)c2F)C1=O (stereo not drawn) [Compound 306]
Plant response rating, Foxtail, Giant (giant foxtail; [9]): 80
Plant response rating, Foxtail, Giant (giant foxtail; [10]): 80
Plant response rating, Foxtail, Giant (giant foxtail; [11]): 90
Foxtail, Giant plant response rating (giant foxtail; [12]): 90
Plant response rating, Pigweed (pigweed; [9]): 70
Plant response rating, Pigweed (pigweed; [10]): 80
Plant response rating, Pigweed (pigweed; [11]): 80
Pigweed plant response rating (pigweed; [12]): 90
Plant response rating, Wheat (wheat; [9]): 50
Plant response rating, Wheat (wheat; [10]): 60
Plant response rating, Sedge, Umbrella (sedge, umbrella; 500 g ai/ha): 0
Plant response rating, Blackgrass (blackgrass; [13]): 0
Plant response rating, Blackgrass (blackgrass; [14]): 0
Plant response rating, Blackgrass (blackgrass; [4]): 5
Plant response rating, Blackgrass (blackgrass; [5]): 5
Blackgrass plant response rating (blackgrass; [6]): 0
Blackgrass plant response rating (blackgrass; [15]): 30
Plant response rating, Blackgrass (blackgrass; [8]): 60
Plant response rating (scale of 0 to 100), Blackgrass (blackgrass; Preemergence, 250 g ai/ha): 90
Plant response rating, Ryegrass, Italian (ryegrass, Italian; [13]): 0
Plant response rating, Ryegrass, Italian (ryegrass, Italian; [14]): 0
Plant response rating, Ryegrass, Italian (ryegrass, Italian; [4]): 5
Plant response rating, Ryegrass, Italian (ryegrass, Italian; [5]): 20
Ryegrass, Italian plant response rating (ryegrass, Italian; [15]): 40
Plant response rating, Ryegrass, Italian (ryegrass, Italian; [8]): 55
Plant response rating (scale of 0 to 100), Ryegrass, Italian (ryegrass, Italian; Preemergence, 250 g ai/ha): 70
Plant response rating, Crabgrass, Large (crabgrass, large; [13]): 10
Plant response rating, Crabgrass, Large (crabgrass, large; [14]): 45
Plant response rating, Crabgrass, Large (crabgrass, large; [4]): 75
Plant response rating, Crabgrass, Large (crabgrass, large; [5]): 85
Crabgrass, Large plant response rating (crabgrass, large; [6]): 90
Crabgrass, Large plant response rating (crabgrass, large; [15]): 95
Plant response rating, Crabgrass, Large (crabgrass, large; [8]): 95
Plant response rating (scale of 0 to 100), Crabgrass, Large (crabgrass, large; Preemergence, 250 g ai/ha): 98
Plant response rating, Foxtail, Giant (foxtail, giant; [13]): 5
Plant response rating, Foxtail, Giant (foxtail, giant; [14]): 75
Plant response rating, Foxtail, Giant (foxtail, giant; [4]): 60
Plant response rating, Foxtail, Giant (foxtail, giant; [5]): 85
Foxtail, Giant plant response rating (foxtail, giant; [6]): 90
Foxtail, Giant plant response rating (foxtail, giant; [15]): 95
Plant response rating, Foxtail, Giant (foxtail, giant; [8]): 95
Plant response rating (scale of 0 to 100), Foxtail, Giant (foxtail, giant; Preemergence, 250 g ai/ha): 100
Plant response rating, Johnsongrass (johnsongrass; [13]): 0
Plant response rating, Johnsongrass (johnsongrass; [14]): 0
Plant response rating, Johnsongrass (johnsongrass; [4]): 0
Plant response rating, Johnsongrass (johnsongrass; [5]): 0
Johnsongrass plant response rating (johnsongrass; [6]): 35
Johnsongrass plant response rating (johnsongrass; [15]): 55
Plant response rating, Johnsongrass (johnsongrass; [8]): 80
Plant response rating (scale of 0 to 100), Johnsongrass (johnsongrass; Preemergence, 250 g ai/ha): 85
Plant response rating, Nutsedge, Yellow (nutsedge, yellow; [13]): 0
Plant response rating, Nutsedge, Yellow (nutsedge, yellow; [14]): 0
Plant response rating, Nutsedge, Yellow (nutsedge, yellow; [5]): 0
Nutsedge, Yellow plant response rating (nutsedge, yellow; [6]): 0
Nutsedge, Yellow plant response rating (nutsedge, yellow; [15]): 0
Plant response rating, Nutsedge, Yellow (nutsedge, yellow; [8]): 0
Plant response rating (scale of 0 to 100), Nutsedge, Yellow (nutsedge, yellow; Preemergence, 250 g ai/ha): 10
Plant response rating, Ragweed (ragweed; [13]): 60
Plant response rating, Ragweed (ragweed; [14]): 55
Plant response rating, Ragweed (ragweed; [4]): 80
Plant response rating, Ragweed (ragweed; [5]): 85
Ragweed plant response rating (ragweed; [15]): 75
Plant response rating, Ragweed (ragweed; [8]): 75
Plant response rating (scale of 0 to 100), Ragweed (ragweed; Preemergence, 250 g ai/ha): 80
